From ChEMBL document CHEMBL1649580, “Mosaic penicillin-binding protein 2 in Neisseria gonorrhoeae isolates collected in 2008 in San Francisco, California” (2009)
Values after ≈ are worked out from the molar mass of the structure shown.

Experiments:
Type in all cases: functional
[1] = tested on: Neisseria gonorrhoeae; test: Antibacterial activity against Neisseria gonorrhoeae isolate SM1 expressing SF-A mosaic penA allele by agar dilution method
[2] = tested on: Neisseria gonorrhoeae; test: Antibacterial activity against Neisseria gonorrhoeae isolate SM2 expressing SF-A mosaic penA allele by agar dilution method
[3] = tested on: Neisseria gonorrhoeae; test: Antibacterial activity against Neisseria gonorrhoeae isolate SM3 expressing SF-A mosaic penA allele by agar dilution method
[4] = tested on: Neisseria gonorrhoeae; test: Antibacterial activity against Neisseria gonorrhoeae isolate SM4 expressing SF-B mosaic penA allele by agar dilution method
[5] = tested on: Neisseria gonorrhoeae; test: Antibacterial activity against Neisseria gonorrhoeae isolate SM5 expressing SF-B mosaic penA allele by agar dilution method
[6] = tested on: Neisseria gonorrhoeae; test: Antibacterial activity against Neisseria gonorrhoeae isolate SW1 expressing nonmosaic penA allele by agar dilution method
[7] = tested on: Neisseria gonorrhoeae; test: Antibacterial activity against Neisseria gonorrhoeae isolate SW2 expressing nonmosaic penA allele by agar dilution method

Structure (SMILES): C=CC1=C(C(=O)O)N2C(=O)[C@@H](NC(=O)/C(=N\OCC(=O)O)c3csc(N)n3)[C@H]2SC1 [CEFIXIME]
- MIC [1]: 0.25 µg/mL (≈ 0.551 µM)
- MIC [2]: 0.125 µg/mL (≈ 0.276 µM)
- MIC [3]: 0.25 µg/mL (≈ 0.551 µM)
- MIC [4]: ≤ 0.008 µg/mL
- MIC [5]: 0.015 µg/mL (≈ 0.0331 µM)
- MIC [6]: ≤ 0.008 µg/mL
- MIC [7]: 0.015 µg/mL (≈ 0.0331 µM)

Structure (SMILES): COCC1=C(C(=O)O)N2C(=O)[C@@H](NC(=O)/C(=N\OC)c3csc(N)n3)[C@H]2SC1 [CEFPODOXIME]
- MIC [1]: 1 µg/mL (≈ 2.34 µM)
- MIC [2]: 0.5 µg/mL (≈ 1.17 µM)
- MIC [3]: 1 µg/mL (≈ 2.34 µM)
- MIC [4]: 0.06 µg/mL (≈ 0.14 µM)
- MIC [5]: 0.25 µg/mL (≈ 0.585 µM)
- MIC [6]: 0.015 µg/mL (≈ 0.0351 µM)
- MIC [7]: 0.03 µg/mL (≈ 0.0702 µM)

Structure (SMILES): CO/N=C(\C(=O)N[C@@H]1C(=O)N2C(C(=O)O)=C(CSc3nc(=O)c(O)nn3C)CS[C@H]12)c1csc(N)n1 [CEFTRIAXONE]
- MIC [1]: 0.06 µg/mL (≈ 0.108 µM)
- MIC [2]: 0.06 µg/mL (≈ 0.108 µM)
- MIC [3]: 0.03 µg/mL (≈ 0.0541 µM)
- MIC [4]: ≤ 0.008 µg/mL
- MIC [5]: ≤ 0.008 µg/mL
- MIC [6]: ≤ 0.008 µg/mL
- MIC [7]: ≤ 0.008 µg/mL
